From BindingDB's records for doi:10.7270/Q2930S2V (Taibah University, 2017)

Biological target: DNA-dependent protein kinase catalytic subunit (Homo sapiens, UniProt P78527)
Experiment: DNA-PK Enzyme Inhibitory Assay
Protocol: The assays of DNA-PK were performed by Reaction Biology Corporation, One Great Valley Parkway, Suite 2 Malvern, PA 19355 USA. All Compounds were dissolved in DMSO (negative control solvent) and tested for their ability to inhibit human DNA-PK enzyme activity. All synthesized compounds were tested in a 10-dose IC50 profile with 4-fold serial dilutions starting at concentration 100 μM. The control compound, LY294002 was tested in a 10-dose IC50 profile with 3-fold serial dilutions starting at 10 μM concentration. Reactions were carried out using 20 μM peptide substrate [EPPLSQEAFADLWKK], 10 μg/ml DNA and 10 μM ATP using the HTRF assay format.

Chain of DNA-dependent protein kinase catalytic subunit (P78527 whole entry): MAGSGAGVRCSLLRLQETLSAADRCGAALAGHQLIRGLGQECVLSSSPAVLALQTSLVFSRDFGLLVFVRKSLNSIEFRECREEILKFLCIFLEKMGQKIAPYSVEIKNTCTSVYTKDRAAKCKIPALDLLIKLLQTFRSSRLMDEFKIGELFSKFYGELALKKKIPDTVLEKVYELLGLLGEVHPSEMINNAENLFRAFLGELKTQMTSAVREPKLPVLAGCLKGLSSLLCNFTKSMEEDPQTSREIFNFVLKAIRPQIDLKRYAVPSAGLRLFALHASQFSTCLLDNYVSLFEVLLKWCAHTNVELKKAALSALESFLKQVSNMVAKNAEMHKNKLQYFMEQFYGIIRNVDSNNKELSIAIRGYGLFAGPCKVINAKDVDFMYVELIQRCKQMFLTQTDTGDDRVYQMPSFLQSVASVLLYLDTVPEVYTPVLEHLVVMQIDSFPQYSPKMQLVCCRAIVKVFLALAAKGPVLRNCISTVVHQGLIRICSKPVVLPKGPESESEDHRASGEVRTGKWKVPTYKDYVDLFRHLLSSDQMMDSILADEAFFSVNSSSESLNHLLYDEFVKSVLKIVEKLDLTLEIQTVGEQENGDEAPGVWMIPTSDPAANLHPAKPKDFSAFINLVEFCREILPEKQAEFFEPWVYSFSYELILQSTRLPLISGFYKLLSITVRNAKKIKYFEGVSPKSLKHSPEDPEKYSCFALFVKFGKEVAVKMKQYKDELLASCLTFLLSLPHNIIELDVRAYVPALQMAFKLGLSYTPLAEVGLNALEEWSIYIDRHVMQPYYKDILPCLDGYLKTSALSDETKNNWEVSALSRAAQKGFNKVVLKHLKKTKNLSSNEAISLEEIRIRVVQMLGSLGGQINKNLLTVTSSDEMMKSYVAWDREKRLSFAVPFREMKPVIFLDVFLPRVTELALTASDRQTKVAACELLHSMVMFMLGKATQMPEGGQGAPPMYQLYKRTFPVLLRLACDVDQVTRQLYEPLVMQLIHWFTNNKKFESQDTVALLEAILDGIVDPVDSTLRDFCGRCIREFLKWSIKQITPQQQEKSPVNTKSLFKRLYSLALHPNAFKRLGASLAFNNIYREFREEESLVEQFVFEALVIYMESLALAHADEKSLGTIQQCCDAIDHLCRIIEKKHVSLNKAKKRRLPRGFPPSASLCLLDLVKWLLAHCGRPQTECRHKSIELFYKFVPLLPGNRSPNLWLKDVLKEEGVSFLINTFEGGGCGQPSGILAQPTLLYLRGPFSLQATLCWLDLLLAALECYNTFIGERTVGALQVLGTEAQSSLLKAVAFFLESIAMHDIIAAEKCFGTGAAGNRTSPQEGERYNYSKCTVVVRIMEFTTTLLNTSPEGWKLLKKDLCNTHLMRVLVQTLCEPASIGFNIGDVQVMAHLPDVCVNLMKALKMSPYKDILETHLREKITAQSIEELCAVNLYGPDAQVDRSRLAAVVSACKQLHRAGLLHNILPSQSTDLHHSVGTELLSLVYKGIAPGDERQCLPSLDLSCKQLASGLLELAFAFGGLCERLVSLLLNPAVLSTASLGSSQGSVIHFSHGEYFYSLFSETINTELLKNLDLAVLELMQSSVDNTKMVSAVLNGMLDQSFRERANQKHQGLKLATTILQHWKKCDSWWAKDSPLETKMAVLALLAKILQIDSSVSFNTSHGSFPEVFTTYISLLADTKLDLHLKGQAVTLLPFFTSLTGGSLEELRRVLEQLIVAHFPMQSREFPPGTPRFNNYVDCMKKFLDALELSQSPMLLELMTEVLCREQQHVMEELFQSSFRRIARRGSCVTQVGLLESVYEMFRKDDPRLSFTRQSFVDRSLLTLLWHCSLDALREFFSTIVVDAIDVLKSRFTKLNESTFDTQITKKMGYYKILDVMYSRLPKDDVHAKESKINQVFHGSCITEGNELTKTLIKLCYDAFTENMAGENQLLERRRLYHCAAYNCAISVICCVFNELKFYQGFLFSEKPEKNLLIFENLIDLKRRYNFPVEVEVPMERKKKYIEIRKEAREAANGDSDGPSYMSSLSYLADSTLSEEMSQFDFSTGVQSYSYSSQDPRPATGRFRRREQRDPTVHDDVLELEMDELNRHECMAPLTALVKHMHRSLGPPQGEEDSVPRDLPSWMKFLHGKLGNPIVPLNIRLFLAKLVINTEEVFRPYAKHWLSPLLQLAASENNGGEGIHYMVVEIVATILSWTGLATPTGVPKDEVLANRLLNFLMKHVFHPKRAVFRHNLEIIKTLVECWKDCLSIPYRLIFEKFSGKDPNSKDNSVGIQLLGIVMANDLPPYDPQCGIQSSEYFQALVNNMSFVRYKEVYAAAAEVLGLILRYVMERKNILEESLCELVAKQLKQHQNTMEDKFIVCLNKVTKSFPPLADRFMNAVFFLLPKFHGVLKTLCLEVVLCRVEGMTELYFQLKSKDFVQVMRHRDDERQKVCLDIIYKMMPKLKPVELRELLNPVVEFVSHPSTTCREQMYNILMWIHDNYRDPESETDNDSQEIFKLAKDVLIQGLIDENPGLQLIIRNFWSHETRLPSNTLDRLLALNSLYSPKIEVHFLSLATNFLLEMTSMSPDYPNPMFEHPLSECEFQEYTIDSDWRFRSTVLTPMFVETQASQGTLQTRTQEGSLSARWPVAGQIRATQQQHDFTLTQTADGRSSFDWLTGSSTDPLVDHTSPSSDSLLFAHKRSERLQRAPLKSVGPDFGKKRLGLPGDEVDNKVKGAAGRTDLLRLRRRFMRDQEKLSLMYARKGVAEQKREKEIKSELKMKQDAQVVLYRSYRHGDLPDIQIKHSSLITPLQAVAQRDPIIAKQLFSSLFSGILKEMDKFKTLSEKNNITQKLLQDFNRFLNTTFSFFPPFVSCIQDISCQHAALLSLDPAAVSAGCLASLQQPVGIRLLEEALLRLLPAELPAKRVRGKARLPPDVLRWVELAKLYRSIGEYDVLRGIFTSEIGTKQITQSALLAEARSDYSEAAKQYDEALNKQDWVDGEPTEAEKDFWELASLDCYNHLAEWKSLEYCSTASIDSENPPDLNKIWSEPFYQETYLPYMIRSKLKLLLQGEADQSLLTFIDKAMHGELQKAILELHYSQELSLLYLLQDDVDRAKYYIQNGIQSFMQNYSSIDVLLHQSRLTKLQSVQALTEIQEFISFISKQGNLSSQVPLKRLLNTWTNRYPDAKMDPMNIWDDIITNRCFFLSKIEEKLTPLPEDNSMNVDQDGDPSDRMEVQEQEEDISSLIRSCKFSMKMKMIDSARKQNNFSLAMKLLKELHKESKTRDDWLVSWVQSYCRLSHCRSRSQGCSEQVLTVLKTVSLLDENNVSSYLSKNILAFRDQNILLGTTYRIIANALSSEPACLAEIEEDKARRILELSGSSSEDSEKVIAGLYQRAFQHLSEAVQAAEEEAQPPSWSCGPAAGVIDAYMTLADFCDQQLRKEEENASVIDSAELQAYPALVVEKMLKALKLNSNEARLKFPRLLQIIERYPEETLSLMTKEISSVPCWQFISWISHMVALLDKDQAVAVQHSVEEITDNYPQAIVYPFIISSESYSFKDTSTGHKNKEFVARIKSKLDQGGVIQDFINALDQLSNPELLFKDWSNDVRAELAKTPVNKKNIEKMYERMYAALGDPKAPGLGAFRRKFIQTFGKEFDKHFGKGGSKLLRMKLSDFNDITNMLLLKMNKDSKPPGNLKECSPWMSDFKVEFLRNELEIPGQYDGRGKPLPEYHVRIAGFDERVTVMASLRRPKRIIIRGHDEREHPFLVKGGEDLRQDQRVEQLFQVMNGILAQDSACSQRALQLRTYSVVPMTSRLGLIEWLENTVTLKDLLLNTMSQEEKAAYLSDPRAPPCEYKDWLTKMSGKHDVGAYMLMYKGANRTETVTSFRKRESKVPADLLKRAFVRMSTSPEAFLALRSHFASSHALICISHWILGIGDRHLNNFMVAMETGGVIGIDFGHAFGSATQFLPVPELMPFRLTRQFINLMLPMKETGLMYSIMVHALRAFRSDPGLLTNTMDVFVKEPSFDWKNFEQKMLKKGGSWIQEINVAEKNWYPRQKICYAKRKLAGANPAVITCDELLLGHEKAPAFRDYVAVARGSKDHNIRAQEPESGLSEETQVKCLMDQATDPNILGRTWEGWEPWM

| Compound | IC50 [µM] |
| --- | --- |
| Cc1c(OCC(=O)Nc2ccc(S(=O)(=O)Nc3ccccn3)cc2)ccc2c(=O)nc(N3CCOCC3)oc12 [2-((8-Methyl-2-morpholino-4-oxo-4H-benzo[e][1,3]oxazin-7-yl)oxy)-N-(4-(N-(pyridin-2-yl)sulfamoyl)phenyl)acetamide (7c)] | 0.25 |
| Cc1c(OCC(=O)Nc2ccc(S(=O)(=O)Nc3nccs3)cc2)ccc2c(=O)nc(N3CCOCC3)oc12 [2-((8-Methyl-2-morpholino-4-oxo-4H-benzo[e][1,3]oxazin-7-yl)oxy)-N-(4-(N-(thiazol-2-yl)sulfamoyl)phenyl)acetamide (7d)] | 3.5 |
| Cc1ccc(CNC(=O)COc2ccc3c(=O)nc(N4CCOCC4)oc3c2C)cc1 [2-((8-Methyl-2-morpholino-4-oxo-4H-benzo[e][1,3]oxazin-7-yl)oxy)-N-(4-methylbenzyl)acetamide (9c)] | 20 |
| Cc1c(OCC(=O)Nc2ccc(S(N)(=O)=O)cc2)ccc2c(=O)nc(N3CCOCC3)oc12 [2-((8-Methyl-2-morpholino-4-oxo-4H-benzo[e][1,3]oxazin-7-yl)oxy)-N-(4-sulfamoylphenyl)acetamide (7a)] | 40 |
| CCC(C)C(NC(=O)COc1ccc2c(=O)nc(N3CCOCC3)oc2c1C)C(=O)O (stereo not given) [3-Methyl-2-(2-((8-methyl-2-morpholino-4-oxo-4H-benzo[e][1,3]oxazin-7-yl)oxy)acetamido)pentanoic acid (11b)] | 80 |
| Cc1c(OCC(=O)N[C@@H](C)C(=O)O)ccc2c(=O)nc(N3CCOCC3)oc12 [(2-((8-Methyl-2-morpholino-4-oxo-4H-benzo[e][1,3]oxazin-7-yl)oxy)acetyl)alanine (11a)] | 100 |
| Cc1c(OCC(=O)N[C@@H](Cc2ccccc2)C(=O)O)ccc2c(=O)nc(N3CCOCC3)oc12 [(2-((8-Methyl-2-morpholino-4-oxo-4H-benzo[e][1,3]oxazin-7yl)oxy)acetyl)phenylalanine (11c)] | 35 |
| Cc1noc(NS(=O)(=O)c2ccc(NC(=O)COc3ccc4c(=O)nc(N5CCOCC5)oc4c3C)cc2)c1C [N-(4-(N-(3,4-dimethylisoxazol-5-yl)sulfamoyl)phenyl)-2-((8-methyl-2-morpholino-4-oxo-4H-benzo[e][1,3]oxazin-7-yl)oxy)acetamide (7f)] | 5 |
| CC(=O)NS(=O)(=O)c1ccc(NC(=O)COc2ccc3c(=O)nc(N4CCOCC4)oc3c2C)cc1 [N-(4-(N-acetylsulfamoyl)phenyl)-2-((8-methyl-2-morpholino-4-oxo-4H-benzo[e][1,3]oxazin-7-yl)oxy)acetamide (7b)] | 35 |
| Cc1c(OCC(=O)Nc2ccc(S(=O)(=O)NC(=N)N)cc2)ccc2c(=O)nc(N3CCOCC3)oc12 [N-(4-(N-carbamimidoylsulfamoyl)phenyl)-2-((8-methyl-2-morpholino-4-oxo-4H-benzo[e][1,3]oxazin-7-yl)oxy)acetamide (7e)] | 25 |
| Cc1c(OCC(=O)NCc2ccc(Cl)cc2)ccc2c(=O)nc(N3CCOCC3)oc12 [N-(4-chlorobenzyl)-2-((8-methyl-2-morpholino-4-oxo-4Hbenzo[e][1,3]oxazin-7-yl)oxy)acetamide (9d)] | 10 |
| Cc1c(OCC(=O)NCc2ccc(F)cc2)ccc2c(=O)nc(N3CCOCC3)oc12 [N-(4-fluorobenzyl)-2-((8-methyl-2-morpholino-4-oxo-4Hbenzo[e][1,3]oxazin-7-yl)oxy)acetamide (9e)] | 4 |
| Cc1c(OCC(=O)NCc2ccc(O)cc2)ccc2c(=O)nc(N3CCOCC3)oc12 [N-(4-hydroxybenzyl)-2-((8-methyl-2-morpholino-4-oxo-4Hbenzo[e][1,3]oxazin-7-yl)oxy)acetamide (9f)] | 2.5 |
| COc1ccc(CNC(=O)COc2ccc3c(=O)nc(N4CCOCC4)oc3c2C)cc1 [N-(4-methoxybenzyl)-2-((8-methyl-2-morpholino-4-oxo-4Hbenzo[e][1,3]oxazin-7-yl)oxy)acetamide (9b)] | 15 |
| Cc1c(OCC(=O)NCc2ccccc2)ccc2c(=O)nc(N3CCOCC3)oc12 [N-benzyl-2-((8-methyl-2-morpholino-4-oxo-4H-benzo[e][1,3]oxazin-7-yl)oxy)acetamide (9a)] | > 100 |
